One data set concerns breast cancer MCF7 cells. Briefly: Cell viability (CCK8) in breast cancer MCF7 cells. It is filed as cell-based, human. Conditions: different concentrations, compared with parent drug 5-FU. The procedure: FIGS. 2A and 2B illustrate the anticancer effects and selectivity of 5-FU and compounds 1a-1c. Cell viability was analyzed after the breast cancer MCF7 cells (FIG. 2A) and normal MEC1 cells (FIG. 2B) were treated with 5-FU or compounds 1a-1c at different concentrations. Data are presented as mean±SD, n=4.
Cell Counting Kit-8 (CCK8, Dojingo) was used to carry out the cytotoxicity assessment of the prodrugs. Seeded cells were treated with varying compound concentrations for 48-72 h and the CCK8 kit was used to measure the cytotoxicity. For NAC experiments, this ROS scavenger was pre-incubated with the cells for 2 h and then co-incubated with the prodrugs for additional 48 hours unless otherwise noted.
The anticancer effects of new compounds 1a and 1b were tested using the breast cancer MCF7 cells and normal MEC1 cells (FIGS. 2A and 2B). […] These differential killing results highlight the specificity of new prodrugs 1a-1b for cancer cells over normal cells. […] To further verify the role of ROS in the drug release process, the MTT assays was performed, using MCF7 cells pretreated with the ROS scavenger N-Acetyl-Cysteine (NAC).

In data set [1] the test system is wild-type C57BL/6 male mice. The data set can be described thus: Acute toxicity in mice. Conditions: 100 mg/kg i.p. every other day for 15 days, C57BL/6 male mice. In kind it is in vivo. As for the experimental part: FIGS. 5A and 5B illustrate the survival rate (FIG. 5A) and body weight (FIG. 5B) curves of the various groups of mice. […] Mice were treated every other day by intraperitoneal (i.p.) injection for 15 days, the survival and body weights of the mice were recorded after treatment.
Mice were treated every other day by intraperitoneal (i.p.) injection for 15 days, the survival and body weights of the mice were recorded after treatment.

For the next data set, the system named is PARP1. The data set can be described thus: Western blot of PARP1 in MCF7 cells. In kind it is cell-based, human. Conditions: 48 h. The procedure:
(§1) FIGS. 4A and 4B illustrate the effect of compounds 1a-1b in apoptosis. FIG. 4A: immunofluorescence of DNA cleavage protein γH2Ax was enhanced by using 5-FU and prodrugs 1a-1b. FIG. 4B: immunoblot analysis of MCF-7 cells treated with 5-FU, prodrugs 1a-1b for apoptosis markers PARP1 and Caspase 3. The cells were treated for 48 h with the indicated concentrations of compounds.
(§2) Western Blot Analysis. Treated cells were washed once with PBS and lysed with RIPA lysis buffer (Santa Cruz Biotechnology, SCBT, #24948) supplemented with sodium orthovanadate, PMSF, protease and phosphatase inhibitor cocktails (Sigma Aldrich). Cell lysates were centrifuge for 15 min at 14,000×g and the supernatant was used for immunoblotting. Protein concentration was normalized for the samples and resolved on a 10-13% SDS-PAGE gel. Following transfer to nitrocellulose membrane, specific mouse primary antibodies from SCBT (PARP1 #sc-8007, caspase 3 #sc-7272) and Cell Signaling (cleaved PARP1 #9541, cleaved caspase-3 #9664) were added and incubated overnight. Secondary antibodies corresponding to the host of the primary antibodies was further incubated with the membrane and washed three times to remove excess antibodies. Odyssey Fc Imaging System (LI-COR, Lincoln, Nebr.) was used to quantify the chemiluminescent of the proteins.
(§3) To understand the mechanism of action of prodrugs 1a-1b, the impact of the treatment of compounds 1a-1b on the γH2AX formation in MCF7 cells were determined using immunofluorescence assay (FIG. 4A). […] The effects of prodrugs 1a-1b on the PARP1 and caspase 3 cleavage in MCF7 cells were also determined using Western blots assays (FIG. 4B). […] Treatment of 5-FU and compounds 1a-1b increased the levels of cleavage of PARP1 and caspase 3 in MCF7 cells, as compared with that in the vehicle-treated controls. Therefore, prodrugs 1a-1b, similar to 5-FU, can induce MCF7 cell apoptosis, which might contribute to their pharmacological actions.
Background: Immunoblotting shows a protein as a band on a membrane.

For the next data set, the system named is caspase 3. Briefly: Western blot of caspase 3 in MCF7 cells. In kind it is cell-based, human. Conditions: 48 h. The procedure: as §1, §2, §3
The next data set has as its system γH2AX. The data set can be described thus: γH2AX immunofluorescence assay in MCF7 cells. Conditions: 48 h. It is filed as cell-based, human. The procedure: as §1
Immunohistochemistry Analysis. MCF7 cells were seeded on poly-D-lysine coated slides. Compounds were incubated with cells for 48 h. Following treatment, cells were washed once in PBS and fixed in 10% formalin for 20 min at room temperature. Methanol was used to permeabilize the cells for 10 min and PBS wash was carried out. Bovine serum albumin was used for 1 h blocking and primary antibodies for γH2AX (SCBT, #sc-517348) was incubated with the cells overnight. Fluorescent secondary antibodies were incubated with cells along with DAPI. Cells were washed trice with PBS and the slides were mounted prior to confocal imaging.
as §3

The target in data set [2] is dihydropyrimidine dehydrogenase (DPD) (Homo sapiens, UniProt Q12882). Conditions: injected 5-FU, degradation into 5-FUH2; cited from earlier work.
Data set [3] deals with human colorectal cancer cells SW480. The data set can be described thus: Anti-proliferative activity in SW480 cells. Conditions: 10 μM, compared to parent drug 6MP. It is filed as cell-based. The procedure: FIG. 12 illustrates the anticancer effects and selectivity of 6MP (10 μM), prodrugs YA6131 (10 μM) and YA6075 (10 μM), evaluated in human colorectal cancer cells SW480 and normal HEK293 cells.
Anticancer effects and selectivity of 6MP (10 μM), prodrugs YA6131 (10 μM) and YA6075 (10 μM): the anticancer activities of prodrugs YA6131 and YA6075 were evaluated in comparison to the parent drug 6MP using the human colorectal cancer cells SW480 and normal HEK293 cells (FIG. 12). […] Without wishing to be bound by any particular theory, it was reasoned that the difference of the anticancer effects of the two prodrugs were due to their different release kinetics of the two compounds in the particular cells used.

[4] abbreviates: compared to vehicle-treated cells.
Setting [5] is: compared to vehicle-treated controls.

dihydropyrimidine dehydrogenase (DPD), sequence (Q12882 4-1025): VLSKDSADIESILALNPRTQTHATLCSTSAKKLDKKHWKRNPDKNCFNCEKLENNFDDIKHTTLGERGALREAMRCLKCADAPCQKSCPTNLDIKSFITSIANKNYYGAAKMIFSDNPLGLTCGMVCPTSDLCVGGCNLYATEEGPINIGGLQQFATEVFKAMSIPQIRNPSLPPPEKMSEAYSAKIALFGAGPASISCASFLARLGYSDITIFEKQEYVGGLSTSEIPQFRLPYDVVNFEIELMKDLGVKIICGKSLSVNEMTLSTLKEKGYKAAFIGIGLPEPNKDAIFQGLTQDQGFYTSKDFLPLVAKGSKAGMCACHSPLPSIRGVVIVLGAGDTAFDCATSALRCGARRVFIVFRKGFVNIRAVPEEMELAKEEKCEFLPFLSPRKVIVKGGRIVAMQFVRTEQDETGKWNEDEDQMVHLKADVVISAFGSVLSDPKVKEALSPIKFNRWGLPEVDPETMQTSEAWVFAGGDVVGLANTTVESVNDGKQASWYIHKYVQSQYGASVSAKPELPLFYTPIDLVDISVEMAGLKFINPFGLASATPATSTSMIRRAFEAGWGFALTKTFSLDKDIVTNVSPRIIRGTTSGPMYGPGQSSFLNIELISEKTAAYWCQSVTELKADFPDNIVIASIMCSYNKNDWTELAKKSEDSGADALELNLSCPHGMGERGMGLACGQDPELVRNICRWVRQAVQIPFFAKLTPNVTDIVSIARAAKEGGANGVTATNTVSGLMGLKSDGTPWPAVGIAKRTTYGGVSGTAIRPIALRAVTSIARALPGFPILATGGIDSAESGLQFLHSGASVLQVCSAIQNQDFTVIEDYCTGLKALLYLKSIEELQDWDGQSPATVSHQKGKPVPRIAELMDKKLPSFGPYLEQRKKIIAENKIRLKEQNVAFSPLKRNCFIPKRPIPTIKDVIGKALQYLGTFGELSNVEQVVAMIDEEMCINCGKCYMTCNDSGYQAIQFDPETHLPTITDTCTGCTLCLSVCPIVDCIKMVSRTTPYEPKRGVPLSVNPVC

As to `O=c1[nH]c(=O)n(Cc2ccccc2)cc1F` [Compound 1c, 1-Benzyl-5-fluoropyrimidine-2,4(1H,3H)-dione], in the data set on breast cancer MCF7 cells, the “antiproliferative activity / anticancer effects” value is “no obvious antiproliferative effects”.

As to `O=c1[nH]cc(F)c(=O)[nH]1` [Compound 5-FU, 5-fluorouracil, reference compound], the “survival / animal death” value in data set [1] was “killed all mice on the twelfth day”. Also, the “expression level of PARP1” value with PARP1 (setting [4]) is “significantly reduced”. In the data set with PARP1 (setting [5]), the “level of cleavage of PARP1” value is “increased”. The “expression level of caspase 3” value with caspase 3 (setting [4]) is recorded as “significantly reduced”. For the same compound, in the data set on caspase 3 (setting [5]), the “level of cleavage of caspase 3” value is reported as “increased”. Besides, in the data set with γH2AX, the γH2AX formation entry is given as “enhanced”. In data set [2], the “share of injected doses deactivated by DPD” value is reported as “more than 85%”.

`CC1(C)OB(c2ccc(Cn3cnc4c(S)ncnc43)cc2)OC1(C)C` [YA6075, 9-(4-(4,4,5,5-Tetramethyl-1,3,2-dioxaborolan-2-yl)benzyl)-9H-purine-6-thiol]: the anti-proliferative activity entry in data set [3] is listed as “reduced effect”.

Regarding `CC1(C)OB(c2ccc(CSc3ncnc4[nH]cnc34)cc2)OC1(C)C` [YA6131], in data set [3], the anti-proliferative activity entry is listed as “similarly potent anti-proliferative activity as compared to 6MP”.

The values above are taken from patent US20220041627A1, “PRODRUGS OF ANTI-CANCER AND ANTI-AUTOIMMUNE DISEASES THERAPEUTIC AGENTS, AND METHODS OF MAKING AND USE THEREOF” (UNIVERSITY OF MARYLAND, BALTIMORE, priority 2018, published 2022).
